From patent publication US9963431B2, “Use of quinoline derivatives for improving plant yield” (BAYER CROPSCIENCE AG, priority 2013, dated 2018)

Assays:
[1] = test system: Triticum aestivum variety “AC Harvest”; assay: Growth chamber trial, grain yield after post-emergence spray application; assay type: in vivo; conditions: for Relative, %: grain yield relative to UTC = 100; for Relative, % / Difference (%) vs. UTC: 10 gai/ha of each active ingredient (mixtures 10 + 10); for Difference (%) vs. UTC: grain yield; for Grain Yield, g/plant: growth chamber, spray at BBCH 56-61, 10 gai/ha of each active ingredient (mixtures 10 + 10)
Corn = assay: Field trial, corn grain yield after post emergence application; assay type: in vivo; conditions: for Relative, %: yield relative to UTC = 100
Description: (§1) The trials have been carried out under natural field conditions (plot trials, 10 sqm, 4 replications) with spray applications using 100-300 l/water per hectare.
(§2) The applications have been done as post emergence treatments straight (alone, 1 application). The growth stage of the crops species at the time of application are reported in the single tables as well as the dose rates of the active ingredients applied.
(§3) The trials have been harvested after crops reached the full maturity. After the harvest, the total weights of grains (kernels/seeds) per plot were taken. Afterwards the seed samples were dried to 14% moisture. The freshweight were calculated to a uniform dry weight of 86% for all harvested plots. The results are reported as means over 4 replications per treatment based on 14% moisture resp. 86% dry weight. The time interval (in days) between applications and harvest time are also described in the single tables.

[2] = test system: Oil seed rape (spring; Canola); assay: Field trial, oil seed rape grain yield after post emergence application; assay type: in vivo; conditions: 100 gai/ha
Description: as §1, §2, §3

Spring wheat = assay: Field trial, spring wheat grain yield after post emergence application; assay type: in vivo; conditions: 100 gai/ha; for Relative, %: yield relative to UTC = 100
Description: as §1, §2, §3

[3] = test system: Triiticum aestivum seeds (TRZAS); assay: Seed treatment trial, grain yield of plants from treated seeds; assay type: in vivo, Triticum aestivum
[4] = 20 gai/ha, mid-post, harvest 76 days after application
[5] = 100 gai/ha, GS 33, harvest 84 days after application
[6] = GS 39, harvest 80 days after application
[7] = GS 55, harvest 72 days after application
[8] = grain yield relative to UTC = 100, 1 gai/kg seed
[9] = 250 gai/ha, mid-post, harvest 76 days after application

| SMILES | Relative, % [1] | Difference (%) vs. UTC [1] | Grain Yield, g/plant [1] | Difference (%) vs. UTC ([3]; 1 gai/kg seed) | Grain Yield, g/plant ([3]; 1 gai/kg seed) | Relative, % [3, 8] | other results |
| --- | --- | --- | --- | --- | --- | --- | --- |
| CO/C=C(/C(=O)OC)c1ccccc1Oc1cc(Oc2ccccc2C#N)ncn1 [Azoxystrobin, azoxystrobin] | 115.1% | +15.1% | 1.22 g/plant |  |  |  |  |
| CCCCCC(C)OC(=O)COc1ccc(Cl)c2cccnc12 (stereo not drawn) [CQM, 1-methylhexyl (5-chloro-8-quinolinoxy)acetate] | 103.7% | +3.7% | 1.10 g/plant | +9.4% | 1.97 g/plant | 109.4% | Difference (%) vs. UTC (Corn; [4]): +2.4%; Yield, dt/ha (Corn; [4]): 94 dt/ha; Difference (%) vs. UTC (Corn; [5]): +9.0%; Yield, dt/ha (Corn; 100 gai/ha, post emergence, stem elongation stage (GS 33), harvest 84 days after application): 52.7 dt/ha; Relative, % (Corn; [4]): 102.4%; Relative, % (Corn; [5]): 108.0%; Difference (%) vs. UTC ([2]; GS 60, harvest 49 days after application): +4.0%; Yield, dt/ha ([2]; late post emergence, begin of flowering (GS 60), harvest 49 days after application): 18.4 dt/ha; Relative, % ([2]; yield relative to UTC = 100, GS 60, harvest 49 days after application): 104.0%; Difference (%) vs. UTC (Spring wheat; [6]): +9.0%; Difference (%) vs. UTC (Spring wheat; [7]): +7.0%; Yield, dt/ha (Spring wheat; late post emergence, ear heading (GS 55), harvest 72 days after application): 40.2 dt/ha; Yield, dt/ha (Spring wheat; post emergence, flag leaf stage (GS 39), harvest 80 days after application): 41.7 dt/ha; Relative, % (Spring wheat; [6]): 109.0%; Relative, % (Spring wheat; [7]): 107.0%; Difference (%) vs. UTC ([3]; 0.5 gai/kg seed): +14.4%; Grain Yield, g/plant ([3]; 0.5 gai/kg seed): 2.06 g/plant; Relative, % ([3]; grain yield relative to UTC = 100, 0.5 gai/kg seed): 114.4% |
| CN/C(=N\[N+](=O)[O-])NCc1cnc(Cl)s1 [Clothianidin, clothianidin] | 112.3% | +12.3% | 1.19 g/plant |  |  |  |  |
| CC1COC(Cn2cncn2)(c2ccc(Oc3ccc(Cl)cc3)cc2Cl)O1 (stereo not drawn) [Difenoconazole, difenoconazole] | 96.2% | −3.8% | 1.02 g/plant | −10% | 1.62 g/plant | 90% |  |
| N#Cc1nn(-c2c(Cl)cc(C(F)(F)F)cc2Cl)c(N)c1[S+]([O-])C(F)(F)F (stereo not drawn) [Fipronil, fipronil] | 112.3% | +12.3% | 1.19 g/plant |  |  |  |  |
| N#Cc1c[nH]cc1-c1cccc2c1OC(F)(F)O2 [Fludioxonil, fludioxonil] |  |  |  | +14.4% | 2.06 g/plant | 114.4% |  |
| OC(Cc1ccccc1Cl)(Cn1nc[nH]c1=S)C1(Cl)CC1 (stereo not drawn) [Prothioconazole, prothioconazole] | 96.2% | −3.8% | 1.02 g/plant |  |  |  |  |
| COC(=O)N(OC)c1ccccc1COc1ccn(-c2ccc(Cl)cc2)n1 [Pyraclostrobin, pyraclostrobin] | 117.0% | +17.0% | 1.24 g/plant |  |  |  | Difference (%) vs. UTC (Corn; [9]): −15.2%; Yield, dt/ha (Corn; [9]): 78 dt/ha; Relative, % (Corn; [9]): 84.8% |
| CON=C(C(=O)OC)c1ccccc1CON=C(C)c1cccc(C(F)(F)F)c1 [Trifloxystrobin, trifloxystrobin] | 105.7% | +5.7% | 1.12 g/plant |  |  |  |  |
| O=[N+]([O-])NC1=NCCN1Cc1ccc(Cl)nc1 [lmidacloprid, imidacloprid] | 107.5% | +7.5% | 1.14 g/plant |  |  |  |  |
| COCC(=O)N(c1c(C)cccc1C)C(C)C(=O)OC (stereo not drawn) [metalaxyl] | 107.5% | +7.5% | 1.14 g/plant | −15.6% | 1.52 g/plant | 84.4% |  |
